Common to all, as to assay: NCI anticancer screen, dose series, 48 h
Assay [1] concerns A498 renal.
Assay [2] relates to CCRF-CEM leukemia.
The subject of assay [3] is COLO 205 colon.
The subject of assay [4] is DMS 273 small cell lung.
The test system of assay [5] is LOX IMVI melanoma.
Assay [6] has as its system UO-31 renal.
Assay [7] has as its system SNB-78 CNS.
Assay [8] has as its system HS 578T breast.
Assay [9] relates to MCF7 breast.
Assay [10] concerns PC-3 prostate.

For 33 molecules, GI50 and TGI results are on record in PubChem BioAssay (NCI).

Where “and” joins values, the source holds several entries; their conditions need not be identical. Equal entries are not always repeated.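 In this assay, cells in 96-well plates receive the compound at five concentrations for 48 hours. Endpoints are linearly interpolated between the surrounding concentrations. GI50 marks 50% less growth. TGI is the concentration that stops growth completely.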

Consider `CC([O-])=C1C(=O)c2ccccc2C1=O.CC([O-])=C1C(=O)c2ccccc2C1=O.CC[O-].CC[O-].[Ti+4]`, for which the GI50 in assay [1] is over 100 µM; in assay [2], over 100 µM; in assay [3], 91.7 µM; in [4] it was over 100 µM; in assay [5] it was over 100 µM; in [6] it was over 100 µM. Also, the TGI in [1], in assay [2], in assay [3], in [4], in assay [5] and in assay [6] was over 100 µM each time.

With `O=C1OC(=O)C2C3C=CC(C12)C1C2C=CC2C31` (stereo unspecified), the TGI in [1], in assay [2], in [3], in [4] and in assay [5] was over 100 µM each time.

For `O=c1c2cc3c(cc2c2cccc4c2n1CCC4)OCO3`, the TGI in assay [2], in assay [3], in [4], in [5], in assay [7] and in assay [6] was over 100 µM throughout.

Consider `COCCOCCOCCOc1cccc2c1C(=O)c1cccc(OCCOCCOCCOC)c1C2=O`, for which the TGI in assay [1], in assay [2], in [3], in assay [4], in assay [5] and in [7] was over 100 µM throughout.

Take `O=C(NCCCl)SCCO`: the TGI in assay [1], in assay [2], in assay [3], in [4], in [7] and in [6] was over 100 µM throughout.

For `NC(=O)NC1C(C(=O)O)N(Cc2ccccc2)C(=O)N1Cc1ccccc1` (stereo unspecified), the TGI in assay [2], in assay [3], in assay [5], in assay [7] and in assay [6] was over 100 µM in each case.

Consider `COc1cccc(N2C(=O)C3C4C=C5c6ccccc6N(c6ccccc6)C5(C3C2=O)[C@H]2C(=O)N(c3cccc(OC)c3)C(=O)[C@@H]42)c1` (stereo partly specified), for which the TGI in assay [1], in assay [2], in assay [3], in assay [4], in assay [5] and in [7] was over 100 µM throughout. The same molecule gave a TGI in assay [6] of over 100 µM.

As to `COc1ccc2c(c1)-c1nn(CCCN(C)C)c3ccc([N+](=O)[O-])c(c13)N2`, the GI50 in assay [1] was 0.458 µM and 1.54 µM; in [2], 0.0825 µM and 0.624 µM; in [3], 0.0962 µM and 0.276 µM; in assay [8], 0.355 µM; in assay [5], 0.101 µM and 0.345 µM; in assay [10] it was 0.112 µM and 0.343 µM. In assay [6], the GI50 was 0.165 µM and 0.435 µM. For the same molecule, the TGI was 3.51 µM and 8.8 µM in assay [1]; 6.45 µM and 8.72 µM in [2]; 0.913 µM and 3.75 µM in assay [3]; 1.86 µM and 4.99 µM in assay [4]; 3.17 µM and 3.24 µM in [8]; 0.957 µM and 4.08 µM in [5]. Moreover, the TGI in [9] is 2.7 µM and 10.9 µM; in assay [10], 2.75 µM and 3.93 µM; in [6], 1.9 µM and 6.16 µM.

As to `COc1cc2ccnc3c(=C(SC)SC)c(=O)c(c1OC)c23`, the TGI in assay [2] amounted to 17 µM; in assay [3], 10.5 µM; in assay [4], 30.4 µM; in assay [5] it was 10.7 µM; in assay [6] it was 29.3 µM.

With `COc1ccc(C(=O)C#Cc2c[nH]c(=O)[nH]c2=O)cc1`, the TGI was determined as 49.9 µM in assay [1]; 10.8 µM in [2]; 24.8 µM in assay [3]; 30.4 µM in assay [4]; 9.52 µM in assay [5]; 37.9 µM in assay [7]. Moreover, the TGI in assay [6] turned out to be 35.2 µM.

In the case of `N#Cc1cccc(C=NC23CC4CC(CC(C4)C2)C3)c1`, the TGI in assay [1], in assay [2], in assay [3], in assay [4], in assay [5] and in assay [7] was over 100 µM in each case. In assay [6], this molecule had a TGI of over 100 µM.

With `C=C(C(=C)P(=S)(C(C)C)C(C)C)P(=S)(C(C)C)C(C)C`, the TGI in assay [1], in assay [2], in [3], in assay [4], in assay [5] and in assay [7] was over 100 µM throughout. Also, the TGI in [6] was over 100 µM.

For the molecule `COc1cc(C(C)O)c[n+](CCC2CNc3ccccc32)c1` (stereo unspecified), the TGI in assay [1], in assay [2], in assay [3], in [4], in assay [5] and in assay [6] was over 100 µM in each case.

Take `c1ccc(OCc2nnc3n2N=C(c2ccccc2)CS3)cc1`: the TGI in assay [1], in assay [2], in assay [4], in [5], in [7] and in assay [6] was over 100 µM each time.

As for `COc1ccc(NC(=O)CC(=O)n2nc(C)c(N=Nc3ccccc3C(=O)O)c2C)cc1`, the TGI in assay [1], in assay [2], in assay [3], in assay [4], in [5] and in assay [7] was over 100 µM throughout. In addition, in [6], the TGI was over 100 µM.

In the case of `CC(=O)NC(C=O)C(O[C@H](C)C(=O)NC(C)C(=O)NC(CCC(N)=O)C(=O)OCc1ccccc1)C(O)C(O)COC(=O)CCNc1c2ccccc2nc2cccc([N+](=O)[O-])c12` (stereo partly specified), the TGI in assay [1] is over 100 µM; in assay [2], 34.6 µM; in [3], 2.74 µM; in assay [4] it was 12 µM; in [5] it was 31.3 µM; in assay [7], 14.4 µM. The TGI in assay [6] stood at 35.9 µM.

As for `CCCCCCCCCCCc1c(O)c(=O)c2c(oc3c(=O)c(CCCCCCCCCCC)c(O)c(=O)c3n2-c2ccc(N(C)C)cc2)c1=O`, the TGI in assay [1] is 36.9 µM; in assay [2], 60.5 µM; in [3], 38.1 µM; in [4], 56.3 µM; in [5] it was 50.7 µM; in [7], over 100 µM.

For the molecule `O=c1[nH]cnc2c(COCCO)c[nH]c12`, the TGI in assay [1], in assay [2], in assay [3], in assay [4], in assay [5] and in assay [7] was over 100 µM each time. Further, the TGI in [6] was over 100 µM.

As to `Cc1c2c(c(C)c3c1[nH]c1ccccc13)CN(C)CC2`, the TGI is 59.4 µM in [1]; over 100 µM in assay [2]; 28.6 µM in assay [3]; 34.3 µM in assay [4]; 29.3 µM in assay [5]; 55.9 µM in assay [7]. The molecule also yielded a TGI in assay [6] of 53 µM.

For `CC(=O)c1ccc(NC(=O)C(=O)C(C#N)CC(C)(C)C=O)cc1` (stereo unspecified), the TGI in assay [1], in assay [2], in assay [3], in assay [5], in assay [7] and in [6] was over 100 µM in each case.

As to `CC(=O)OC1=CC2(OC(C)=O)CC(C)(C)C1C1C(=O)C=CC(=O)C12` (stereo unspecified), the TGI was over 100 µM in assay [1]; over 100 µM in assay [2]; over 65.7 µM in [3]; over 100 µM in assay [4]; over 56.1 µM in [5]; over 100 µM in assay [9]. In addition, the TGI in [10], in assay [7] and in assay [6] was over 100 µM in each case.

As to `CCC1(CN(C)C)CC/C(=C\c2ccc(OC)c(OC)c2)C1=O` (stereo unspecified), the TGI in assay [1], in [2], in [3], in assay [4], in assay [5] and in assay [7] was over 100 µM throughout. This molecule also yielded a TGI in [6] of over 100 µM.

Take `CC1=Nc2c([nH]c(=S)[nH]c2=O)NC(c2c(Cl)cccc2Cl)C1` (stereo unspecified): the TGI came out at 6.68 µM in assay [1]; 2.18 µM in assay [2]; 4.34 µM in [3]; 4.4 µM in [4]; 17.1 µM in [8]; 1.84 µM in assay [5]. Also, the TGI in assay [9] came out at 3.12 µM; in assay [10] it was 2.6 µM; in assay [7] it was 25 µM; in assay [6], 10.2 µM.

For `NC(=O)CC(N=Cc1nc(-c2ccccc2)oc1O)C(=O)O` (stereo unspecified), the TGI in [1], in assay [2], in [3], in [4], in [5] and in [7] was over 100 µM in each case. In assay [6], this molecule gave a TGI of over 100 µM.

`Cc1ccc(NC(=O)CCc2n[nH]c(=S)o2)cc1`: the TGI in assay [1], in assay [2], in assay [3], in assay [4], in assay [5] and in assay [7] was over 100 µM in each case. Besides, the TGI in assay [6] was over 100 µM.

With `COc1cccc(SSc2cccc(OC)c2C(=O)O)c1C(=O)O`, the TGI in assay [1], in assay [2], in assay [3], in assay [4], in [5] and in assay [7] was over 100 µM throughout. The molecule further yielded a TGI in assay [6] of over 100 µM.

As to `N#CC1=C(O)NC(O)=C(C#N)C1c1ccc(C2C(C#N)=C(O)NC(O)=C2C#N)cc1`, the TGI was over 100 µM in assay [1]; over 100 µM in [2]; 63.1 µM in assay [3]; over 100 µM in [4]; over 100 µM in [5]; over 100 µM in assay [7]. The TGI in assay [6] was over 100 µM.

For the molecule `Cc1ccc(S(=O)(=O)N/N=C/C(C)C)cc1`, the TGI in assay [1], in [2], in assay [3], in assay [4], in assay [5] and in [7] was over 100 µM in each case. In assay [6], the TGI is over 100 µM.

Consider `COc1cc(Cl)cc(-c2nn(-c3cccc(NC(=O)Nc4ccc(Cl)c(Cl)c4)c3)cc2-c2ccncc2)c1`, for which the GI50 was 2.52 µM in [1]; 2 µM in assay [2]; 1.71 µM in assay [3]; 3.89 µM in assay [8]; 2.91 µM in assay [5]; 2.56 µM in assay [9]. The GI50 is 1.13 µM in assay [10] and 1.89 µM in [6]. Moreover, the TGI in assay [1] was 90.9 µM; in assay [2] it was 6 µM; in assay [3] it was 3.31 µM; in assay [8], over 100 µM; in assay [5] it was 12.4 µM; in assay [9], 13.2 µM. In addition, the values for the TGI in [10] and in assay [6] were 5.28 µM and 18.2 µM, respectively.

`Cc1cccc2c3c(sc12)C(c1ccc(F)cc1)C(C#N)=C(N)O3` (stereo unspecified): the GI50 in assay [1] is 0.0192 µM; in [2], 0.0439 µM; in assay [3], 0.28 µM; in assay [8] it was 0.0482 µM; in [5] it was 0.0608 µM; in assay [9], 0.0332 µM. Moreover, the GI50 in assay [10] is 0.045 µM; in assay [6], 0.286 µM. Further, the TGI in assay [1] was 0.318 µM; in assay [2], over 59.7 µM; in assay [3] it was 1.29 µM; in assay [8], 1.95 µM; in assay [5], 5.2 µM; in [9] it was 11.1 µM. In addition, the figures for the TGI in assay [10] and in assay [6] were 11.3 µM and 15.5 µM, respectively.

On to `C/C(=N\NC(=S)N1CCCCCC1)c1cccc2cccnc12`, for which the TGI in [1] was 54.9 µM; in assay [2], over 100 µM; in [3], 12.3 µM; in assay [8] it was over 100 µM; in assay [5], 27.1 µM; in [9] it was over 100 µM. Further, the figures for the TGI in [10] and in assay [6] were over 100 µM and over 44.2 µM, respectively.

For `Cc1ccc(C2NC(=O)c3ccccc3N2)c(C)c1` (stereo unspecified), the TGI in [1] is 34.9 µM; in assay [2], over 100 µM; in [3], 14.2 µM; in assay [8] it was 6.78 µM; in [5] it was over 100 µM; in assay [9] it was 8.34 µM. In addition, the TGI in assay [10] was over 40.2 µM; in assay [6] it was over 100 µM.

Consider `O=C1CCCCC12CCC/C2=N\O` (stereo unspecified), for which the TGI in assay [1], in assay [2], in assay [3], in [4], in assay [7] and in assay [6] was over 100 µM each time.
